In ChEMBL document CHEMBL1145752, “Dissociation of antibacterial and hemolytic activities of an amphipathic peptide antibiotic” (2003):
≈ marks a conversion by molar mass, not a printed value. Non-standard residues stand in square brackets, D forms with d. Residues, ends and D or L forms follow the SMILES beside them. Orn = NCCC[C@H](N)C(=O)O

Assays:
Format in all cases: functional
Bacillus subtilis [1] = test: Inhibitory activity was determined against bacillus subtilis (ATCC 82)
[2] = Tested for minimum concentration for hemolysis of fresh human erythrocytes
Bacillus subtilis [3] = test: Ratio of minimum hemolysis concentration to that of minimum inhibitory concentration

SMILES	MIC (Bacillus subtilis [1]) [µg/mL]	MHC [2] [µg/mL]	Ratio (Bacillus subtilis [3])
CC(C)C[C@@H]1NC(=O)[C@H](CCCN)NC(=O)[C@H](C(C)C)NC(=O)[C@H](Cc2ccc(O)cc2)NC(=O)[C@H](CCC(=O)O)NC(=O)[C@H](CC(N)=O)NC(=O)[C@@H](Cc2ccccc2)NC(=O)[C@H](Cc2ccccc2)NC(=O)[C@@H]2CCCN2C(=O)[C@@H](Cc2ccccc2)NC1=O	7.5 (≈ 5.9 µM)	30	4
CC(C)C[C@@H]1NC(=O)[C@H](CCCN)NC(=O)[C@H](C(C)C)NC(=O)[C@H](Cc2ccc(O)cc2)NC(=O)[C@H](CC(N)=O)NC(=O)[C@H](CC(N)=O)NC(=O)[C@@H](Cc2ccccc2)NC(=O)[C@H](Cc2ccccc2)NC(=O)[C@@H]2CCCN2C(=O)[C@@H](Cc2ccccc2)NC1=O	0.4 (≈ 0.318 µM)	20	50
CC(C)C[C@@H]1NC(=O)[C@H](CCCN)NC(=O)[C@H](C(C)C)NC(=O)[C@H](Cc2ccc(O)cc2)NC(=O)[C@H](CCC(N)=O)NC(=O)[C@H](CC(N)=O)NC(=O)[C@@H](Cc2ccccc2)NC(=O)[C@H](C)NC(=O)[C@@H]2CCCN2C(=O)[C@@H](Cc2ccccc2)NC1=O	19 (≈ 15.9 µM)	47	2.5
CC(C)C[C@@H]1NC(=O)[C@H](CCCN)NC(=O)[C@H](C(C)C)NC(=O)[C@H](Cc2ccc(O)cc2)NC(=O)[C@H](CCC(N)=O)NC(=O)[C@H](CC(N)=O)NC(=O)[C@@H](Cc2ccccc2)NC(=O)[C@H](Cc2ccccc2)NC(=O)[C@H](C)NC(=O)[C@@H](Cc2ccccc2)NC1=O	18 (≈ 14.5 µM)	53	2.9
CC(C)C[C@@H]1NC(=O)[C@H](CCCN)NC(=O)[C@H](C(C)C)NC(=O)[C@H](Cc2ccc(O)cc2)NC(=O)[C@H](CCCN)NC(=O)[C@H](CC(N)=O)NC(=O)[C@@H](Cc2ccccc2)NC(=O)[C@H](Cc2ccccc2)NC(=O)[C@@H]2CCCN2C(=O)[C@@H](Cc2ccccc2)NC1=O (cyclo(F[dF]N[Orn]YV[Orn]L[dF]P))	0.2 (≈ 0.159 µM)	25	125
CC(C)C[C@@H]1NC(=O)[C@H](CCCN)NC(=O)[C@H](C(C)C)NC(=O)[C@H](Cc2ccc(O)cc2)NC(=O)[C@H](CO)NC(=O)[C@H](CC(N)=O)NC(=O)[C@@H](Cc2ccccc2)NC(=O)[C@H](Cc2ccccc2)NC(=O)[C@@H]2CCCN2C(=O)[C@@H](Cc2ccccc2)NC1=O	0.3 (≈ 0.244 µM)	16	53
CC[C@H](C)[C@@H]1NC(=O)[C@H](CC(N)=O)NC(=O)[C@@H](Cc2ccccc2)NC(=O)[C@H](Cc2ccccc2)NC(=O)[C@@H]2CCCN2C(=O)[C@@H](Cc2ccccc2)NC(=O)[C@H](CC(C)C)NC(=O)[C@H](CCCN)NC(=O)[C@H](C(C)C)NC(=O)[C@H](Cc2ccc(O)cc2)NC1=O	1.8 (≈ 1.43 µM)	45	25
CC(C)C[C@@H]1NC(=O)[C@H](CCCN)NC(=O)[C@H](C(C)C)NC(=O)[C@H](Cc2ccc(O)cc2)NC(=O)[C@H](CCC(N)=O)NC(=O)[C@H](CC(N)=O)NC(=O)[C@@H](Cc2ccccc2)NC(=O)[C@H](Cc2ccccc2)NC(=O)[C@@H]2CCCN2C(=O)[C@@H](Cc2ccccc2)NC1=O [TYROCIDINE A] (cyclo(F[dF]NQYV[Orn]L[dF]P))	8.3 (≈ 6.53 µM)	8.2	1
CC(C)C[C@@H]1NC(=O)[C@H](CCCN)NC(=O)[C@H](C(C)C)NC(=O)[C@H](Cc2ccc(O)cc2)NC(=O)[C@H](CCC(N)=O)NC(=O)[C@H](C)NC(=O)[C@@H](Cc2ccccc2)NC(=O)[C@H](Cc2ccccc2)NC(=O)[C@@H]2CCCN2C(=O)[C@@H](Cc2ccccc2)NC1=O	15 (≈ 12.2 µM)	39	2.6
CC(C)C[C@@H]1NC(=O)[C@H](CCCN)NC(=O)[C@H](C(C)C)NC(=O)[C@H](Cc2ccc(O)cc2)NC(=O)[C@H](CCCCN)NC(=O)[C@H](CC(N)=O)NC(=O)[C@@H](Cc2ccccc2)NC(=O)[C@H](Cc2ccccc2)NC(=O)[C@@H]2CCCN2C(=O)[C@@H](Cc2ccccc2)NC1=O (cyclo(F[dF]NKYV[Orn]L[dF]P))	1.1 (≈ 0.866 µM)	99	90
CC(C)C[C@@H]1NC(=O)[C@H](CCCN)NC(=O)[C@H](C(C)C)NC(=O)[C@H](Cc2ccc(O)cc2)NC(=O)[C@H](CCCN=C(N)N)NC(=O)[C@H](CC(N)=O)NC(=O)[C@@H](Cc2ccccc2)NC(=O)[C@H](Cc2ccccc2)NC(=O)[C@@H]2CCCN2C(=O)[C@@H](Cc2ccccc2)NC1=O	0.3 (≈ 0.231 µM)	42	140
CC(C)C[C@@H]1NC(=O)[C@H](C)NC(=O)[C@H](C(C)C)NC(=O)[C@H](Cc2ccc(O)cc2)NC(=O)[C@H](CCC(N)=O)NC(=O)[C@H](CC(N)=O)NC(=O)[C@@H](Cc2ccccc2)NC(=O)[C@H](Cc2ccccc2)NC(=O)[C@@H]2CCCN2C(=O)[C@@H](Cc2ccccc2)NC1=O	13 (≈ 10.6 µM)	13	1
CC(C)C[C@@H]1NC(=O)[C@H](CCCN)NC(=O)[C@H](C(C)C)NC(=O)[C@H](Cc2ccc(O)cc2)NC(=O)[C@H](CCC(N)=O)NC(=O)[C@H](CC(N)=O)NC(=O)[C@@H](Cc2ccccc2)NC(=O)[C@H](Cc2ccccc2)NC(=O)[C@@H]2CCCN2C(=O)[C@@H](C)NC1=O	15 (≈ 12.6 µM)	20	1.3
CC(C)C[C@@H]1NC(=O)[C@H](CCCN)NC(=O)[C@H](C(C)C)NC(=O)[C@H](Cc2ccc(O)cc2)NC(=O)[C@H](CCC(N)=O)NC(=O)[C@H](CC(N)=O)NC(=O)[C@@H](C)NC(=O)[C@H](Cc2ccccc2)NC(=O)[C@@H]2CCCN2C(=O)[C@@H](Cc2ccccc2)NC1=O	10 (≈ 8.37 µM)	47	4.7
CC(C)C[C@@H]1NC(=O)[C@H](CCCN)NC(=O)[C@H](C(C)C)NC(=O)[C@H](Cc2ccc(O)cc2)NC(=O)[C@H](C)NC(=O)[C@H](CC(N)=O)NC(=O)[C@@H](Cc2ccccc2)NC(=O)[C@H](Cc2ccccc2)NC(=O)[C@@H]2CCCN2C(=O)[C@@H](Cc2ccccc2)NC1=O	1.5 (≈ 1.24 µM)	28	19
CC(C)C[C@@H]1NC(=O)[C@H](CC(N)=O)NC(=O)[C@@H](Cc2ccccc2)NC(=O)[C@H](Cc2ccccc2)NC(=O)[C@@H]2CCCN2C(=O)[C@@H](Cc2ccccc2)NC(=O)[C@H](CC(C)C)NC(=O)[C@H](CCCN)NC(=O)[C@H](C(C)C)NC(=O)[C@H](Cc2ccc(O)cc2)NC1=O	0.3 (≈ 0.239 µM)	20	67
CC(C)C[C@@H]1NC(=O)[C@H](CCCN)NC(=O)[C@H](C(C)C)NC(=O)[C@H](Cc2ccc(O)cc2)NC(=O)[C@H](Cc2ccc(O)cc2)NC(=O)[C@H](CC(N)=O)NC(=O)[C@@H](Cc2ccccc2)NC(=O)[C@H](Cc2ccccc2)NC(=O)[C@@H]2CCCN2C(=O)[C@@H](Cc2ccccc2)NC1=O	5 (≈ 3.83 µM)	120	24
CC(C)C[C@@H]1NC(=O)[C@H](CCCN)NC(=O)[C@H](C(C)C)NC(=O)[C@H](Cc2ccc(O)cc2)NC(=O)[C@H](Cc2ccccc2)NC(=O)[C@H](CC(N)=O)NC(=O)[C@@H](Cc2ccccc2)NC(=O)[C@H](Cc2ccccc2)NC(=O)[C@@H]2CCCN2C(=O)[C@@H](Cc2ccccc2)NC1=O	0.6 (≈ 0.465 µM)	18	30
CC(C)[C@@H]1NC(=O)[C@H](Cc2ccc(O)cc2)NC(=O)[C@H](CCC(N)=O)NC(=O)[C@H](CC(N)=O)NC(=O)[C@@H](Cc2ccccc2)NC(=O)[C@H](Cc2ccccc2)NC(=O)[C@@H]2CCCN2C(=O)[C@@H](Cc2ccccc2)NC(=O)[C@H](C)NC(=O)[C@H](CCCN)NC1=O	25 (≈ 20.4 µM)	50	2
CC(C)C[C@@H]1NC(=O)[C@H](CCCN)NC(=O)[C@H](C(C)C)NC(=O)[C@H](Cc2ccc(O)cc2)NC(=O)[C@H](Cc2c[nH]c3ccccc23)NC(=O)[C@H](CC(N)=O)NC(=O)[C@@H](Cc2ccccc2)NC(=O)[C@H](Cc2ccccc2)NC(=O)[C@@H]2CCCN2C(=O)[C@@H](Cc2ccccc2)NC1=O	3.8 (≈ 2.86 µM)	125	33
CC(C)C[C@@H]1NC(=O)[C@H](CCCN)NC(=O)[C@H](C(C)C)NC(=O)[C@H](C)NC(=O)[C@H](CCC(N)=O)NC(=O)[C@H](CC(N)=O)NC(=O)[C@@H](Cc2ccccc2)NC(=O)[C@H](Cc2ccccc2)NC(=O)[C@@H]2CCCN2C(=O)[C@@H](Cc2ccccc2)NC1=O	14 (≈ 11.9 µM)	14	1
CC(C)C[C@@H]1NC(=O)[C@H](CCCN)NC(=O)[C@H](C(C)C)NC(=O)[C@H](Cc2ccc(O)cc2)NC(=O)[C@H](C(C)C)NC(=O)[C@H](CC(N)=O)NC(=O)[C@@H](Cc2ccccc2)NC(=O)[C@H](Cc2ccccc2)NC(=O)[C@@H]2CCCN2C(=O)[C@@H](Cc2ccccc2)NC1=O	2.9 (≈ 2.34 µM)	35	12
CC(C)C[C@@H]1NC(=O)[C@H](CCCN)NC(=O)[C@H](C(C)C)NC(=O)[C@H](Cc2ccc(O)cc2)NC(=O)[C@H](CC(=O)O)NC(=O)[C@H](CC(N)=O)NC(=O)[C@@H](Cc2ccccc2)NC(=O)[C@H](Cc2ccccc2)NC(=O)[C@@H]2CCCN2C(=O)[C@@H](Cc2ccccc2)NC1=O	5.3 (≈ 4.21 µM)	32	6
CC(C)C[C@@H]1NC(=O)[C@H](CCCN)NC(=O)[C@H](C)NC(=O)[C@H](Cc2ccc(O)cc2)NC(=O)[C@H](CCC(N)=O)NC(=O)[C@H](CC(N)=O)NC(=O)[C@@H](Cc2ccccc2)NC(=O)[C@H](Cc2ccccc2)NC(=O)[C@@H]2CCCN2C(=O)[C@@H](Cc2ccccc2)NC1=O	15 (≈ 12.1 µM)	16	1.1
